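Each compound was tested at five concentrations against cells in 96-well plates for 48 hours. Abbreviation: GI50, concentration required for 50% inhibition of growth.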 Activity calls are given as the source filed them. Rule as the data show it: active = GI50 up to about 1.1 µM and inactive = higher.

Test systems include KM-20L2; SR; XF498; SNB-75; UO-31; SF-268; OVCAR-8; HT-29; DMS-114; RXF 393; LOX IMVI; DLD-1; SK-MEL-28; NCI-H460; HL-60.
Holding throughout (test): DTP human tumour cell line panel, 48 h

As a reminder, the GI50 is the concentration that inhibits growth by half. With `CCOC(=O)[C@H]1Nc2c(cccc2[N+](=O)[O-])C2c3ccccc3CC21` (stereo partly specified), the GI50 with KM-20L2 was > 100 µM (inactive); with SR, 59.8 µM (inactive); with XF498 it was > 100 µM (inactive); in the test on SNB-75, > 100 µM (inactive); in the test on UO-31, > 100 µM (inactive); in the test with SF-268, > 100 µM (inactive). The GI50 in the test with OVCAR-8 is > 100 µM (inactive); in the test on HT-29, 18.3 µM (inactive); in the test with DMS-114 it was > 100 µM (inactive); in the test on RXF 393 it was 3.15 µM (inactive); with LOX IMVI, > 100 µM (inactive); in the test with DLD-1, > 100 µM (inactive). The GI50 with SK-MEL-28 and with NCI-H460 was > 100 µM (inactive) throughout.

With `Nc1ncnc2c1ncn2[C@@H]1O[C@H](COP(=O)(O)O)[C@@H](O)[C@@H]1O`, the GI50 with KM-20L2 was > 50 µM (inactive); in the test on HL-60, 14.6 µM (inactive); with XF498, > 34.4 µM (inactive); in the test on SNB-75 it was > 50 µM (inactive); with UO-31, > 50 µM (inactive); with SF-268 it was > 50 µM (inactive). The GI50 in the test with OVCAR-8 is 12.9 µM (inactive); in the test on HT-29 it was > 50 µM (inactive); in the test with DMS-114, > 50 µM (inactive); in the test on RXF 393 it was > 50 µM (inactive); in the test on LOX IMVI, > 50 µM (inactive); in the test with DLD-1 it was > 31.6 µM (inactive). Also, the GI50 in the test with SK-MEL-28 and in the test on NCI-H460 was > 50 µM (inactive) throughout.

Regarding `C#Cc1c(C)c(/C=C/C(C)=C\C(=O)OC)n(C)c1C`, the GI50 is 46.6 µM (inactive) in the test on KM-20L2; 6.65 µM (inactive) in the test on HL-60; > 100 µM (inactive) in the test on XF498; 63.4 µM (inactive) in the test on UO-31; 68.5 µM (inactive) in the test with SF-268; 70.1 µM (inactive) in the test on OVCAR-8. Also, the GI50 is 28.6 µM (inactive) with HT-29; 19 µM (inactive) in the test on DMS-114; > 100 µM (inactive) in the test on LOX IMVI; 45.4 µM (inactive) in the test on DLD-1; 63.7 µM (inactive) in the test on NCI-H460.

For `Nc1nc(SCCC/C=C/I)nc2c1ncn2C1OC(CO)C(O)C1O` (stereo unspecified), the GI50 in the test with KM-20L2 is > 202 µM (inactive); in the test on HL-60, > 202 µM (inactive); in the test with SR, > 202 µM (inactive); in the test on XF498, > 202 µM (inactive); in the test with SNB-75, 78.9 µM (inactive); in the test on UO-31, > 202 µM (inactive). Moreover, the GI50 in the test on SF-268, in the test on OVCAR-8, with HT-29, with DMS-114, in the test on LOX IMVI and in the test on DLD-1 was > 202 µM (inactive) throughout. Also, the GI50 in the test with SK-MEL-28 and in the test on NCI-H460 was > 202 µM (inactive) in each case.

Consider `[N-]=[N+]=CC(=O)c1ccccc1C#CCCc1ccccc1`, for which the GI50 in the test with KM-20L2 was 23.6 µM (inactive); in the test on HL-60 it was 8.05 µM (inactive); in the test with SR, 28.2 µM (inactive); in the test on XF498, 12.1 µM (inactive); with SNB-75, 15.6 µM (inactive); in the test with UO-31, 22.7 µM (inactive). The GI50 is 27.8 µM (inactive) with OVCAR-8; 16.6 µM (inactive) in the test with HT-29; 5.83 µM (inactive) in the test on DMS-114; 30 µM (inactive) in the test on RXF 393; 30.1 µM (inactive) in the test on LOX IMVI; 39.4 µM (inactive) in the test with DLD-1. Moreover, the GI50 with SK-MEL-28 is 48.2 µM (inactive); in the test with NCI-H460, 23.2 µM (inactive).

`C=C1C(=O)C[C@@]23CCC[C@@]12CC(O)C3` (stereo partly specified): the GI50 was 21.8 µM (inactive) in the test with KM-20L2; 19.5 µM (inactive) in the test with HL-60; 22.6 µM (inactive) in the test on XF498; 18.4 µM (inactive) with SNB-75; 37.6 µM (inactive) in the test with UO-31; 43.7 µM (inactive) with SF-268. For the same molecule, the GI50 is 32.7 µM (inactive) with OVCAR-8; 14.6 µM (inactive) in the test with HT-29; 16.7 µM (inactive) in the test with DMS-114; 13.7 µM (inactive) with RXF 393; 14.6 µM (inactive) in the test with LOX IMVI; 18.6 µM (inactive) with DLD-1. The GI50 with SK-MEL-28 was 21.5 µM (inactive); with NCI-H460, 20.8 µM (inactive).

With `[N-]=[N+]=CC(=O)OCC(N)C(=O)O` (stereo unspecified), the GI50 in the test with KM-20L2 is 0.157 µM (active); in the test on HL-60, 0.448 µM (active); in the test with XF498 it was 5.96 µM (inactive); in the test on SNB-75, 21.3 µM (inactive); in the test on UO-31 it was 2.61 µM (inactive); with SF-268 it was 0.685 µM (active). The GI50 in the test on OVCAR-8 is 1.32 µM (inactive); in the test with HT-29 it was 0.177 µM (active); with DMS-114, 1.59 µM (inactive); with RXF 393 it was 15.7 µM (inactive); in the test on LOX IMVI it was 0.205 µM (active); in the test with DLD-1 it was 0.344 µM (active). Also, the GI50 with SK-MEL-28 was 3.35 µM (inactive); in the test with NCI-H460, 0.411 µM (active).

Take `CCCCC(C)C1CCC2(C)C=CC(=O)C(C)=C2C1O` (stereo unspecified): the GI50 in the test with KM-20L2, in the test with HL-60, in the test on XF498, with SNB-75, in the test on UO-31 and with SF-268 was > 100 µM (inactive) in each case. In addition, the GI50 with OVCAR-8, with HT-29, in the test on DMS-114, in the test with RXF 393, in the test on LOX IMVI and in the test with DLD-1 was > 100 µM (inactive) throughout. Besides, the GI50 in the test on SK-MEL-28 and with NCI-H460 was > 100 µM (inactive) throughout.

Regarding `CCOC(=O)c1ccc(N[C@@H]2c3cc4c(cc3C(c3cc(OC)c(O)c(OC)c3)[C@H]3C(=O)OCC32)OCO4)cc1O` (stereo partly specified), the GI50 in the test on KM-20L2 is 2.2 µM (inactive); with HL-60, 0.133 µM (active); in the test on XF498 it was 1.3 µM (inactive); with SNB-75, 0.548 µM (active); in the test with UO-31, 0.34 µM (active); in the test on SF-268 it was 0.789 µM (active). Moreover, the GI50 with OVCAR-8 is 1.77 µM (inactive); in the test on HT-29 it was 0.546 µM (active); in the test on DMS-114, 0.56 µM (active); with RXF 393 it was 1.88 µM (inactive); in the test on LOX IMVI it was 0.185 µM (active); with DLD-1, 1.44 µM (inactive). Moreover, the GI50 with SK-MEL-28 was 1.22 µM (inactive); in the test on NCI-H460, < 0.01 µM (active).

Regarding `COc1ccc(C23C(=O)c4ccccc4N2O[C@H]2C(=O)N(c4ccccc4)C(=O)[C@H]23)cc1` (stereo partly specified), the GI50 with KM-20L2, in the test on HL-60, in the test on XF498, in the test on SNB-75, with UO-31 and in the test with SF-268 was > 100 µM (inactive) in each case. The GI50 in the test on OVCAR-8, with HT-29, in the test on DMS-114, in the test on RXF 393, in the test with LOX IMVI and in the test with DLD-1 was > 100 µM (inactive) each time. For the same molecule, the GI50 with SK-MEL-28 and with NCI-H460 was > 100 µM (inactive) each time.

As for `CC1(C)CCc2cc3c(cc2O1)OC(C)(C)CC3=O`, the GI50 was 23.4 µM (inactive) in the test on HL-60; 57.5 µM (inactive) in the test on SR; 50.8 µM (inactive) with XF498; 70.8 µM (inactive) in the test on SNB-75; 40.3 µM (inactive) in the test with UO-31; > 100 µM (inactive) in the test on SF-268. Also, the GI50 in the test with OVCAR-8 is > 100 µM (inactive); in the test on HT-29, 35.6 µM (inactive); in the test with DMS-114 it was 40.9 µM (inactive); with LOX IMVI, > 100 µM (inactive); with DLD-1 it was 97.5 µM (inactive); in the test with NCI-H460 it was > 100 µM (inactive).

With `O=NN(CCCl)C(=O)NC1CCSc2ccccc21` (stereo unspecified), the GI50 is > 100 µM (inactive) in the test on KM-20L2; 23.3 µM (inactive) in the test with HL-60; > 100 µM (inactive) with XF498; 87.3 µM (inactive) with SNB-75; > 91.2 µM (inactive) in the test on UO-31; 20.9 µM (inactive) in the test on SF-268. The GI50 in the test with OVCAR-8 is > 100 µM (inactive); in the test with HT-29, > 100 µM (inactive); with DMS-114 it was 47.2 µM (inactive); in the test on RXF 393, > 100 µM (inactive); in the test on LOX IMVI, 82 µM (inactive); in the test on DLD-1, > 100 µM (inactive). In addition, the GI50 in the test on SK-MEL-28 was > 58.2 µM (inactive); in the test on NCI-H460, > 69.3 µM (inactive).

As to `CC(=O)OCC1OC(n2cc(F)c(=O)[nH]c2=O)C(NC(=O)OCc2ccccc2)C(OC(C)=O)C1OC(C)=O` (stereo unspecified), the GI50 in the test on KM-20L2, with HL-60, in the test on XF498, in the test with SNB-75, in the test on UO-31 and in the test with SF-268 was > 100 µM (inactive) in each case. For the same molecule, the GI50 in the test with OVCAR-8, with HT-29, in the test with DMS-114, in the test on RXF 393, in the test on LOX IMVI and with DLD-1 was > 100 µM (inactive) in each case. Further, the GI50 in the test with SK-MEL-28 and in the test on NCI-H460 was > 100 µM (inactive) each time.

On to `O=C(O)c1cc2c3c(c1)[C@H]1C=CC[C@H]1CN3CC1CC=CC21` (stereo partly specified), for which the GI50 in the test with KM-20L2, in the test with HL-60, with SR, in the test with XF498, with SNB-75 and in the test on UO-31 was > 100 µM (inactive) in each case. In addition, the GI50 in the test on SF-268, in the test on OVCAR-8, in the test on HT-29, with DMS-114, with RXF 393 and in the test with LOX IMVI was > 100 µM (inactive) in each case. In addition, the GI50 with DLD-1 and in the test on NCI-H460 was > 100 µM (inactive) each time.

The record behind these values is ChEMBL document CHEMBL1201862, “PubChem BioAssay data set” (2004).
